Experiment [1] deals with MOLM-14 D835Y cells, FLT3 ITD and FLT3 D835Y. Briefly: Cell proliferation assay (CellTiter-Glo), MOLM-14 D835Y. Type of experiment: cell-based. Particulars: Homo sapiens, 72 h, 3d-Growth, GMean. Put shortly:
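Three-day growth at 37 °C, 5% CO2 under compound (1 μM top final, 1:3 dilutions, eight points, 0.2% DMSO), read as ATP luminescence by CellTiter-Glo for IC50. Cells: MOLM-14 with FLT3 ITD plus D835Y or F691L, and IL-3-deprived Ba/F3 transfected with FLT3 ITD/D835Y, 1×10^4 per well.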

The target in another experiment is T1, FLT3-D835Y (Homo sapiens, UniProt P36888, D835Y).
T1 construct: purchased Invitrogen PV3967
T1 sequence (P36888 27-993 D835Y): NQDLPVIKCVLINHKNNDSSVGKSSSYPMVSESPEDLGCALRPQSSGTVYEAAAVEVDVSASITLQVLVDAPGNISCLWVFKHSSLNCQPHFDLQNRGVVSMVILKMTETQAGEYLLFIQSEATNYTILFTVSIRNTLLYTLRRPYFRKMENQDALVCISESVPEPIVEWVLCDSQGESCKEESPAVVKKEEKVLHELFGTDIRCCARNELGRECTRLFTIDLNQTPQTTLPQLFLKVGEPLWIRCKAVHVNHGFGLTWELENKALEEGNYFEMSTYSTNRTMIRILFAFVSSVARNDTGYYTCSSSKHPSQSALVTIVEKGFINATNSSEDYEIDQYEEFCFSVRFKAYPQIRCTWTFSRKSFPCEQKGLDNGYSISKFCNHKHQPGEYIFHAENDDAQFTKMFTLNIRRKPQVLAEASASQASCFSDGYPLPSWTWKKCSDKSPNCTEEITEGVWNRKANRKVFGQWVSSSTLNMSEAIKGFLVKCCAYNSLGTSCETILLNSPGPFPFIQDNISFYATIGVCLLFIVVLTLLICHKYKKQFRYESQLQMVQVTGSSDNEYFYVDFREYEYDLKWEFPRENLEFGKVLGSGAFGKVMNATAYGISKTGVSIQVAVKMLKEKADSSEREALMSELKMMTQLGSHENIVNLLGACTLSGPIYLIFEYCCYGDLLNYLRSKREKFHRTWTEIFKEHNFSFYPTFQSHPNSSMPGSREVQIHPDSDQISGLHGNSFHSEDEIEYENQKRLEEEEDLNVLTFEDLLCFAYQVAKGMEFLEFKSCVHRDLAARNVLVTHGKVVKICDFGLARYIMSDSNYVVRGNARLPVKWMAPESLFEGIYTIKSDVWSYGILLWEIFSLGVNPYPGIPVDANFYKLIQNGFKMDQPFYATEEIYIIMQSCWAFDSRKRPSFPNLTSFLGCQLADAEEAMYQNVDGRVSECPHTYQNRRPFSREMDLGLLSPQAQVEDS
Briefly: AlphaScreen kinase assay with recombinant enzyme, FLT3-D835Y. Type of experiment: biochemical. Conditions: 8pt, GMean. Summed up:
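AlphaScreen, biotinylated poly(Glu4-Tyr) 30 nM final; PY20 anti-pTyr acceptor and streptavidin donor beads 10 μg/mL; IC50 final conc. 10 μM (FLT3-D835Y, FLT3-ITD) / 100 μM (c-KIT); detection incubations 20 + 60 min RT; 580 nm emission.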

Turning to `CNC1CCN(C(=O)c2cccc(-c3cnc4[nH]c(-c5ccnc(OC)c5)cc4c3)n2)C1` (stereo not shown) [Compound P-0060, [6-[2-(2-methoxy-4-pyridyl)-1H-pyrrolo[2,3-b]pyridin-5-yl]-2-pyridyl]-[3-(methylamino)pyrrolidin-1-yl]methanone], the IC50 (in experiment [1]; at FLT3-D835Y) was 0.0001 to 10 µM in each case.

As for `CNC1CCN(C(=O)c2cccc(-c3cnc4[nH]c(-c5ccccc5)cc4c3)n2)C1` (stereo not shown) [Compound P-0040, [3-(methylamino)pyrrolidin-1-yl]-[6-(2-phenyl-1H-pyrrolo[2,3-b]pyridin-5-yl)-2-pyridyl]methanone], the IC50 (in experiment [1]; on FLT3-D835Y) was 0.0001 to 10 µM in each case.

In the case of `CC(C)(C#N)NC(=O)c1cccc(-c2cnc3[nH]c(-c4ccc(N5CCOCC5)nc4)cc3c2)n1` [Compound P-0197, N-(1-cyano-1-methyl-ethyl)-6-[2-(6-morpholino-3-pyridyl)-1H-pyrrolo[2,3-b]pyridin-5-yl]pyridine-2-carboxamide], the IC50 (in experiment [1]; at FLT3-D835Y) was 0.0001 to 10 µM in each case.

In the case of `CNCC1CCN(C(=O)c2cccc(-c3cnc4[nH]c(-c5ccccc5)cc4c3)n2)C1` (stereo not shown) [Compound P-0079, [3-(methylaminomethyl)pyrrolidin-1-yl]-[6-(2-phenyl-1H-pyrrolo[2,3-b]pyridin-5-yl)-2-pyridyl]methanone], the IC50 (in experiment [1]; on FLT3-D835Y) was 0.0001 to 10 µM each time.

As for `NC1CCC(NS(=O)(=O)c2cccc(-c3cnc4[nH]c(-c5ccccc5)cc4c3)n2)CC1` (stereo not shown) [Compound P-0088, N-(4-aminocyclohexyl)-6-(2-phenyl-1H-pyrrolo[2,3-b]pyridin-5-yl)pyridine-2-sulfonamide], the IC50 (in experiment [1]; at FLT3-D835Y) was 0.0001 to 10 µM each time.

Turning to `NC1CCN(C(=O)c2cccc(-c3cnc4[nH]c(-c5ccccc5)cc4c3)n2)CC1` [Compound P-0013, (4-amino-1-piperidyl)-[6-(2-phenyl-1H-pyrrolo[2,3-b]pyridin-5-yl)-2-pyridyl]methanone], the IC50 (in experiment [1]; on FLT3-D835Y) was 0.0001 to 10 µM each time.

Regarding `O=C(c1cccc(-c2cnc3[nH]c(-c4ccccc4)cc3c2)n1)N1CC(F)(F)C1` [Compound P-0090, (3,3-difluoroazetidin-1-yl)-[6-(2-phenyl-1H-pyrrolo[2,3-b]pyridin-5-yl)-2-pyridyl]methanone], the IC50 (in experiment [1]; on FLT3-D835Y) was 0.0001 to 10 µM each time.

Consider `Cc1nn(C(C)C)cc1-c1[nH]c2ncc(-c3cccc(C(=O)NC(C)(C)C#N)n3)cc2c1Cl` [Compound P-0192], for which the IC50 (in experiment [1]; at FLT3-D835Y) was 0.0001 to 10 µM throughout.

As to `COc1ncc(-c2cc3cc(-c4cccc(C(=O)NC(C)(C)C#N)n4)cnc3[nH]2)cn1` [Compound P-0196, N-(1-cyano-1-methyl-ethyl)-6-[2-(2-methoxypyrimidin-5-yl)-1H-pyrrolo[2,3-b]pyridin-5-yl]pyridine-2-carboxamide], the IC50 (in experiment [1]; at FLT3-D835Y) was 0.0001 to 10 µM throughout.

As for `NC1CCN(C(=O)c2n[nH]c3ccc(-c4cnc5[nH]c(-c6ccccc6)cc5c4)cc23)CC1` [Compound P-0012, (4-amino-1-piperidyl)-[5-(2-phenyl-1H-pyrrolo[2,3-b]pyridin-5-yl)-1H-indazol-3-yl]methanone], the IC50 (in experiment [1]; on FLT3-D835Y) was 0.0001 to 10 µM each time.

As to `CNC1CCN(C(=O)c2cccc(-c3cnc4[nH]c(-c5cccc(C#N)c5)cc4c3)n2)C1` (stereo not shown) [Compound P-0062, 3-[5-[6-[3-(methylamino)pyrrolidine-1-carbonyl]-2-pyridyl]-1H-pyrrolo[2,3-b]pyridin-2-yl]benzonitrile], the IC50 (in experiment [1]; at FLT3-D835Y) was 0.0001 to 10 µM in each case.

Take `CC(C)Oc1ncc(-c2cc3cc(-c4cccc(C(=O)NC(C)(C)C#N)n4)cnc3[nH]2)cn1` [Compound P-0191, N-(1-cyano-1-methyl-ethyl)-6-[2-(2-isopropoxypyrimidin-5-yl)-1H-pyrrolo[2,3-b]pyridin-5-yl]pyridine-2-carboxamide]: the IC50 (in experiment [1]; on FLT3-D835Y) was 0.0001 to 10 µM in each case.

Take `CC(C)(C#N)NC(=O)c1cccc(-c2cnc3[nH]c(-c4cnc(N5CCOCC5)nc4)cc3c2)n1` [Compound P-0198, N-(1-cyano-1-methyl-ethyl)-6-[2-(2-morpholinopyrimidin-5-yl)-1H-pyrrolo[2,3-b]pyridin-5-yl]pyridine-2-carboxamide]: the IC50 (in experiment [1]; at FLT3-D835Y) was 0.0001 to 10 µM throughout.

In the case of `CN[C@@H]1CCN(C(=O)c2cccc(-c3cnc4[nH]c(-c5ccccc5)cc4c3)n2)C1` [Compound P-0058, [(3R)-3-(methylamino)pyrrolidin-1-yl]-[6-(2-phenyl-1H-pyrrolo[2,3-b]pyridin-5-yl)-2-pyridyl]methanone], the IC50 (in experiment [1]; on FLT3-D835Y) was 0.0001 to 10 µM throughout.

Consider `CNC1CCN(C(=O)c2cccc(-c3cnc4[nH]c(C5=CCC(C)(C)CC5)cc4c3)n2)C1` (stereo not shown) [Compound P-0070, [6-[2-(4,4-dimethylcyclohexen-1-yl)-1H-pyrrolo[2,3-b]pyridin-5-yl]-2-pyridyl]-[3-(methylamino)pyrrolidin-1-yl]methanone], for which the IC50 (in experiment [1]; on FLT3-D835Y) was 0.0001 to 10 µM each time.

For `CNC1CCN(S(=O)(=O)c2cccc(-c3cnc4[nH]c(-c5ccccc5)cc4c3)n2)C1` (stereo not shown) [Compound P-0063, N-methyl-1-[[6-(2-phenyl-1H-pyrrolo[2,3-b]pyridin-5-yl)-2-pyridyl]sulfonyl]pyrrolidin-3-amine], the IC50 (in experiment [1]; at FLT3-D835Y) was 0.0001 to 10 µM throughout.

Consider `CC1(N)CCN(C(=O)c2cccc(-c3cnc4[nH]c(-c5ccccc5)cc4c3)n2)C1` (stereo not shown) [Compound P-0078, (3-amino-3-methyl-pyrrolidin-1-yl)-[6-(2-phenyl-1H-pyrrolo[2,3-b]pyridin-5-yl)-2-pyridyl]methanone], for which the IC50 (in experiment [1]; on FLT3-D835Y) was 0.0001 to 10 µM in each case.

Consider `CONC(=O)c1cccc(-c2cnc3[nH]c(-c4ccccc4)cc3c2)c1` [Compound P-0003, N-methoxy-3-(2-phenyl-1H-pyrrolo[2,3-b]pyridin-5-yl)benzamide], for which the IC50 on FLT3-D835Y was in the range of 0.0001 to 10 µM.

For `CCOC(=O)C1CCN(C(=O)c2cccc(-c3cnc4[nH]c(-c5ccccc5)cc4c3)n2)CC1` [Compound P-0025, ethyl 1-[6-(2-phenyl-1H-pyrrolo[2,3-b]pyridin-5-yl)pyridine-2-carbonyl]piperidine-4-carboxylate], the IC50 on FLT3-D835Y is 0.0001 to 10 µM.

Take `c1ccc(-c2cc3cc(-c4cccc(OC5CCNCC5)n4)cnc3[nH]2)cc1` [Compound P-0050, 2-phenyl-5-[6-(4-piperidyloxy)-2-pyridyl]-1H-pyrrolo[2,3-b]pyridine]: the IC50 on FLT3-D835Y is 0.0001 to 10 µM.

For the compound `N[C@H]1CCN(C(=O)c2ncc(-c3cnc4[nH]c(-c5ccccc5)cc4c3)s2)C1` [Compound P-0054, [(3S)-3-aminopyrrolidin-1-yl]-[5-(2-phenyl-1H-pyrrolo[2,3-b]pyridin-5-yl)thiazol-2-yl]methanone], at FLT3-D835Y, the IC50 is 0.0001 to 10 µM.

Consider `CC(=O)NC1CCN(C(=O)c2cccc(-c3cnc4[nH]c(-c5ccccc5)cc4c3)n2)CC1` [Compound P-0020, N-[1-[6-(2-phenyl-1H-pyrrolo[2,3-b]pyridin-5-yl)pyridine-2-carbonyl]-4-piperidyl]acetamide], for which the IC50 on FLT3-D835Y is 0.0001 to 10 µM.

In the case of `CNC(=O)Nc1ccc(-c2cnc3[nH]c(-c4ccccc4)cc3c2)cc1` [Compound P-0006, 1-methyl-3-[4-(2-phenyl-1H-pyrrolo[2,3-b]pyridin-5-yl)phenyl]urea], the IC50 at FLT3-D835Y lay in the range of 0.0001 to 10 µM.

For the origin of these results see patent publication US9938273B2 (Plexxikon Inc., priority 2015, dated 2018).
